# Test results as given in patent US12661355B2, “Compounds and methods for inducing UCP1 expression” (The Regents of the University of California, priority 2020, dated 2026).
# Assays:
# AKAP1mut cells = test: Gene expression in AKAP1mut and AKAP1wt brown adipocyte cell lines; assay type: cell-based, mouse; conditions: 10 μM
# Method: RNA levels were measured by qPCR according to known methods. Briefly, RNA was extracted with TRIzol (Invitrogen) and reverse transcribed with iScript (Bio-Rad). Real-time PCR analysis was performed with a CFX Connect (Bio-Rad).
# Two gRNAs were selected using sgRNA Designer from the Broad Institute (gRNA1: […] (SEQ ID NO: 46) and gRNA2: […] (SEQ ID NO: 47)). Cloning was performed using pSpCas9 (BB)-2A-puro (PX459) V2.0 vector (Addgene plasmid #62988). Plasmid construction was confirmed by sequencing. A puromycin-sensitive brown adipocyte cell line was transfected with the two plasmids and selected with […] puromycin. Single-cell cloning was performed in a 96-well plate and clones selected by Western blot to detect AKAP1 protein knockdown, and confirmed by sequencing after PCR amplification (PCR primers: […] (SEQ ID NO: 48) and […] (SEQ ID NO: 49)).
# To further assess the requirement of AKAP1 to mediate the effects of Z160, AKAP1 was inactivated in an immortalized brown adipocyte cell line (AKAP1wt) using CRISPR/Cas9 gene editing. One clone (AKAP1mut) was selected based on very low AKAP1 protein levels (FIG. 10A).
# AKAP1 = target: T1, AKAP1 (Mus musculus, UniProt O08715); test: Western blot of mitochondria-associated proteins, AKAP1; assay type: cell-based; conditions: brown adipocytes, 10 μM, after 6-8 h
# T1 construct: from tissue; host or cells: mouse brown adipose tissue (BAT) lysate; also mouse brown adipocyte extracts
# T1 sequence (O08715 30-857): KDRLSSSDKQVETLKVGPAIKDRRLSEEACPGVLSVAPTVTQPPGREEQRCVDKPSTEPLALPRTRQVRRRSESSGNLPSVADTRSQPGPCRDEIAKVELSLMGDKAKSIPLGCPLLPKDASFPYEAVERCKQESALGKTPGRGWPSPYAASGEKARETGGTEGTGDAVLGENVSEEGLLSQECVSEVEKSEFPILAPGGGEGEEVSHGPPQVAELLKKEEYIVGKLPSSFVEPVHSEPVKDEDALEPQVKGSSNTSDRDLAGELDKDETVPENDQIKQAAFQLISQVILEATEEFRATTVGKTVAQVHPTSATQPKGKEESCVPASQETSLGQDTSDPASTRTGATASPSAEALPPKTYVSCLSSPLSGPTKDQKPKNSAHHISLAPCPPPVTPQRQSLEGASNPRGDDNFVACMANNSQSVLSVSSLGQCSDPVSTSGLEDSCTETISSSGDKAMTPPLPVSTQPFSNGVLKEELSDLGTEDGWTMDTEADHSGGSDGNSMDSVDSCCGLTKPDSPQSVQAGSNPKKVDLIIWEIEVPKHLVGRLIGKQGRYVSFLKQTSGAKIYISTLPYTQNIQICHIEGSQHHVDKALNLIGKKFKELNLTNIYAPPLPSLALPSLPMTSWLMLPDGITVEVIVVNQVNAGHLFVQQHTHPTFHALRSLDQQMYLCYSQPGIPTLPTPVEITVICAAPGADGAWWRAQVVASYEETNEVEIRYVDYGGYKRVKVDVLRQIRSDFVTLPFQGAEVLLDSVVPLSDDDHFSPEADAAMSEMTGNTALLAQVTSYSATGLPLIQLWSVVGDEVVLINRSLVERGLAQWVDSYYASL
# Method: Cells and tissues were lysed in 10 mM Tris pH 7.5, 10 mM NaCl, 1 mM EDTA and 0.5% Triton X-100, supplemented with complete mini EDTA-free protease (Roche Diagnostics) and phosphatase (Cocktail 2 and 3, Sigma) inhibitors, followed by 10 second sonication. For analysis of mitochondrial proteins, mitochondria were isolated from cells by dual centrifugation, as described. Protein lysates were separated by SDS-PAGE and transferred to a nitrocellulose membrane. Transfer was confirmed by Ponceau staining (P7170, Sigma). After blocking in 5% milk, 0.1% Tween-20 in Tris-buffered saline (TBS), primary antibody was incubated overnight at 4° C. in 5% bovine serum albumin and 0.1% Tween-20 in TBS. Primary antibodies against ACTB (GTX109639, GeneTex), AKAP1 (5203, Cell Signaling), AKAP6 (07-087, Millipore), Cytochrome c (136F3, Cell Signaling), electron transport chain protein complexes (Total OXPHOS rodent WB antibody cocktail ab110413, Abcam), GAPDH (GTX100118, Genetex), active p38 MAPK (V1211, Promega), total p38 MAPK (8690, Cell Signaling), PGC1α (AB3242, Millipore), phospho-(Ser/Thr) PKA substrate (9621, Cell Signaling), PKA C-α (4782, Cell Signaling), PKA RII-β (ab75993, Abcam), and UCP1 (662045, Calbiochem) were used at 1:2000. […] Quantification using representative bands from the Ponceau staining was performed with ImageJ. […]
compound,measurement,setting,value
COc1ccc(NC(=O)CSc2nc3ccccc3c(=O)[nH]2)c(OC)c1 [Z160],"induced expression of Hoxa5, Cidea, Elovl3, Acox1 and Cpt1b in AKAP1mut",AKAP1mut cells; AKAP1mut vs AKAP1wt,blunted or reduced
same,Ucp1 expression response in AKAP1mut cells,AKAP1mut cells; AKAP1mut,did not respond
same,Ppargc1a expression,AKAP1mut cells; both AKAP1wt and AKAP1mut cells,increased
same,AKAP1 protein levels in the mitochondrial fraction,AKAP1,increased
